Laboratory results as given in patent publication US20260216197A1, “WRN HELICASE INHIBITOR” (SUZHOU PUHE BIOPHARMA CO., LTD., priority 2022, published 2026).

Legend:
WRN helicase = WRN helicase (Homo sapiens, UniProt Q14191); assay: WRN helicase hydrolysis/unwinding of double-stranded DNA (fluorescence); assay type: biochemical
Procedure: The activity of the molecules of the present disclosure on the hydrolysis of double-stranded PP-6TR DNA by WRN helicase was tested.
The working solution and buffer were prepared, and the test compound was dissolved in DMSO followed by a4-fold dilution (with a final concentration of 10 μM as the starting concentration). Then, 0.2 μL of the test compound solution was added to a384-well plate, followed by 10 μL of (2×) WRN enzyme solution. The mixture was incubated in the dark for 30 minutes, after which 10 μL of substrate detection solution containing double-stranded DNA was added to initiate the reaction (DNA length: 19 bp, labeled with TAMRA at the 3′ end and BHQ2 at the 5′ end). The mixture was incubated at room temperature for 60 minutes. The inhibitory activity (IC50) against the WRN enzyme was calculated based on the fluorescence change (Ex530/Em590) between the blank group (DMSO) and the compound group.

[1] = system: MSI-H colorectal cancer SW48 cell line; assay: 2D anti-proliferative activity, MSI-H SW48 cells (CTG, 5 days); assay type: cell-based
Procedure: The molecules of the present disclosure were tested for their anti-proliferative activity against MSI-H tumor cells.
The proliferation of tumor cells with microsatellite instability MSI-H is sensitive to WRN inhibitors, while the proliferation of microsatellite stable (MSS) tumor cells is insensitive to WRN inhibitors. By testing the activities of the two, it is shown that the molecules of the present disclosure have an inhibitory and synthetic lethal effect on WRN at the cellular level.
(§1) The MSI-unstable SW48 colorectal cancer cells were cultured in RPMI 1640 medium containing 10% FBS and 1% penicillin-streptomycin in a 37° C., 5% CO2 constant temperature incubator. A 40 μL cell suspension was added to each well of a 384-well microplate. Using Echo, 40 nL of compounds at different concentrations was dispensed into each well, followed by incubation in a 37° C., 5% CO2 constant temperature incubator for 5 days. Then, 40 μL of CTG solution (Promega, Cat No. G7573) was added to each well, and the plate was incubated in the dark in a 37° C., 5% CO2 constant temperature incubator for 30 minutes. Luminescence was measured using an Envision multi-function microplate reader (Perkin Elmer, Model: Envision 2104). The luminescent signal was proportional to the amount of ATP in the system, and the amount of ATP directly represented the number of living cells in the system.

[2] = system: MSS colorectal cancer HT-29 cell line; assay: 2D anti-proliferative activity, MSS HT-29 cells (CTG, 5 days); assay type: cell-based
Procedure: The molecules of the present disclosure were tested for their anti-proliferative activity against MSS tumor cells.
as §1, with “MSS HT-29” for “MSI-unstable SW48”, “McCoy's 5A” for “RPMI 1640”

[3] = Liver microsome stability test; assay type: in vitro ADME; details: human liver microsomes 0.5 mg/mL, compound 1 μM, NADPH 1 mM, 60 minutes
Procedure: The liver microsome stability test of the compounds is as follows:
The compounds of the present disclosure were subjected to a liver microsome stability test. The compounds to be tested were co-incubated with liver microsomes of different species with or without the addition of NADPH. The final concentration of the compounds to be tested in the test system was 1 μM, the final concentration of NADPH was 1 mM, and the final concentration of liver microsomes was 0.5 mg/mL.

[4] = Pharmacokinetic evaluation in mice; assay type: in vivo, CD1 female mice
Procedure: CD1 female mice were used as test animals and the drug was administered orally/intravenously (oral dosage: 10 mg/kg, intravenous dosage: 2 mg/kg).
Assay protocol: The oral group consisted of 3 mice per group (vehicle: 10% Hβ-CD-pH7.4), and the intravenous group consisted of 3 mice per group. […] The blood concentrations in plasma after oral and intravenous administration of mice were determined by LC/MS/MS, respectively.

[5] = system: SW 48 (MSI-H) colorectal cancer cells; assay: In vivo pharmacodynamic assay, SW48 xenograft in nude mice; design: species or system BALB/c nude mice; details: 120 mg/kg, QD, oral
Procedure: In vivo pharmacodynamic assay in BALB/c nude mice. Details are as follows:
SW 48 (MSI-H) colorectal cancer cells were cultured (L15 medium with 10% fetal bovine serum), and then inoculated into 6-8-week old female BALB/c nude mice (weighing about 20 g), wherein all mice were inoculated subcutaneously. The mice were cultured in an SPF-grade experimental environment, and all mice had free access to commercially certified standard diets. When the average tumor volume of the mice grew to about 150 mm^3, the test compound was orally administered daily. The dosage was as follows: blank group vehicle (10% HP-β-CD aqueous solution, pH-7). The dosage of the administration group was 120 mg/kg, 50 mg/kg, or 20 mg/kg, once a day. The tumor volume was measured with a two-dimensional caliper three times a week, and the animals were weighed every day. […] The tumor volume was calculated using the formula: V=½a*b^2, where a represents the long diameter of the tumor, and b represents the short diameter of the tumor.

Sequence of WRN helicase (Q14191 whole entry): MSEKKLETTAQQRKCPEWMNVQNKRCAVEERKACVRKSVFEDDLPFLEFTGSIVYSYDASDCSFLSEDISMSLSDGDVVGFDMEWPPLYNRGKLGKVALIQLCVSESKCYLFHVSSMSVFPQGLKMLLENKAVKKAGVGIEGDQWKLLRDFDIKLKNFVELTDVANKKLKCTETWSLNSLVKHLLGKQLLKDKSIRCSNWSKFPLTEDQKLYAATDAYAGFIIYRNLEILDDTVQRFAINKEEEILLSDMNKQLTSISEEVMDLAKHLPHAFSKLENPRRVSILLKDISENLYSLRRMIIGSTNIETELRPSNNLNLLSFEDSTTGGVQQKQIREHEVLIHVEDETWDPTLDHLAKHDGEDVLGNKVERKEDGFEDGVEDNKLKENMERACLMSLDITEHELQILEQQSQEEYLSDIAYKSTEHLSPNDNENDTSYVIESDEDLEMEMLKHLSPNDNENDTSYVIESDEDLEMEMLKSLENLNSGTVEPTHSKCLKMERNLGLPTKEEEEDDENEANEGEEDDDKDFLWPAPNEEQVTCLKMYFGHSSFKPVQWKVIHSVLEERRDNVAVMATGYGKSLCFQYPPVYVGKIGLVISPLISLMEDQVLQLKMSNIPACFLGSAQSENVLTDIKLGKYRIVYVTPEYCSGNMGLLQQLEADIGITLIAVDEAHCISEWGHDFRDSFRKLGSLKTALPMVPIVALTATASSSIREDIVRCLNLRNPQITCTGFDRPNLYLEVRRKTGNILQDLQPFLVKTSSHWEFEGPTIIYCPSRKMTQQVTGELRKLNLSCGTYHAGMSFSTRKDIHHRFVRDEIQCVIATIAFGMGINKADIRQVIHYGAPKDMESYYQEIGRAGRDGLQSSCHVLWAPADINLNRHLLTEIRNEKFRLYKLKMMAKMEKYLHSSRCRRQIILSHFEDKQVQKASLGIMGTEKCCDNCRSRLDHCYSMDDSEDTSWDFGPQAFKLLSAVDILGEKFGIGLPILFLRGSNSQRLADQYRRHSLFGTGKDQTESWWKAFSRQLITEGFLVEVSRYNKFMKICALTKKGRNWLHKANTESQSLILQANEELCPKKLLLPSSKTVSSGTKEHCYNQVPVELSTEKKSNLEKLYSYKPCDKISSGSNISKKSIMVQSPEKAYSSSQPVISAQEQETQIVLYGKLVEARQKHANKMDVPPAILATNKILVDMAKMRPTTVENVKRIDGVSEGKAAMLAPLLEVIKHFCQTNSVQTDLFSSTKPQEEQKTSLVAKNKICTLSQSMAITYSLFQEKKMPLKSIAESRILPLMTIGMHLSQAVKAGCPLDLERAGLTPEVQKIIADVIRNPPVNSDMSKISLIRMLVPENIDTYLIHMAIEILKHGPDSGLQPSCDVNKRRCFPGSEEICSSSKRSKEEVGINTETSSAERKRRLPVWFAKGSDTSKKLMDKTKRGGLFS

SMILES: CCc1c(N2CCN(C(=O)c3ncnc(C)c3O)CC2)c(=O)n2nc(C3=CCOCC3)nc2n1CC(=O)Nc1ccc(C(F)(F)F)c2ccsc12 [Compound H1]
- IC50 (WRN helicase): 1.5 nM
- Average value/ Inhibition rate ([1]; 0.038146973 nM): −7.8792
- Test 1/ Inhibition rate ([1]; 0.038146973 nM): −7.3699
- Test 2/ Inhibition rate ([1]; 0.038146973 nM): −8.3885
- Average value/ Inhibition rate ([1]; 0.152587891 nM): −7.2326
- Test 1/ Inhibition rate ([1]; 0.152587891 nM): −8.9847
- Test 2/ Inhibition rate ([1]; 0.152587891 nM): −5.4804
- Average value/ Inhibition rate ([1]; 0.610351563 nM): −7.2423
- Test 1/ Inhibition rate ([1]; 0.610351563 nM): −8.9821
- Test 2/ Inhibition rate ([1]; 0.610351563 nM): −5.5025
- Average value/ Inhibition rate ([1]; 2.44140625 nM): −1.2893
- Test 1/ Inhibition rate ([1]; 2.44140625 nM): −5.0894
- Test 2/ Inhibition rate ([1]; 2.44140625 nM): 2.5108
- Average value/ Inhibition rate ([1]; 9.765625 nM): −9.8115
- Test 1/ Inhibition rate ([1]; 9.765625 nM): −9.6799
- Test 2/ Inhibition rate ([1]; 9.765625 nM): −9.9432
- inhibitory activity on SW48 cells ([1]; 39 nM): high inhibitory activity
- Average value/ Inhibition rate ([1]; 39.0625 nM): 12.6131
- Test 1/ Inhibition rate ([1]; 39.0625 nM): 9.3323
- Test 2/ Inhibition rate ([1]; 39.0625 nM): 15.8938
- Average value/ Inhibition rate ([1]; 156.25 nM): 98.3044
- Test 1/ Inhibition rate ([1]; 156.25 nM): 98.4846
- Test 2/ Inhibition rate ([1]; 156.25 nM): 98.1243
- Average value/ Inhibition rate ([1]; 625 nM): 98.5020
- Test 1/ Inhibition rate ([1]; 625 nM): 98.3268
- Test 2/ Inhibition rate ([1]; 625 nM): 98.6771
- Average value/ Inhibition rate ([1]; 2500 nM): 99.9213
- Test 1/ Inhibition rate ([1]; 2500 nM): 99.6262
- Test 2/ Inhibition rate ([1]; 2500 nM): 100.2164
- Average value/ Inhibition rate ([1]; 10000 nM): 100.6963
- Test 1/ Inhibition rate ([1]; 10000 nM): 100.7430
- Test 2/ Inhibition rate ([1]; 10000 nM): 100.6495
- IC50 ([1]; 5 days): 55 nM
- IC50 [2]: > 10000 nM
- Human Clint μL/min/mg Protein [3]: 14.8 μL/min/mg Protein
- Human Clint/(mL/min/kg) [3]: 18.5 mL/min/kg
- in vivo exposure compared with reference molecule A1 [4]: higher in vivo exposure
- AUC0-24 ([4]; IV 2 mg/kg): 1421 ng·h/mL
- C0 ([4]; IV 2 mg/kg): 3299 ng/mL
- Cl ([4]; IV 2 mg/kg): 23.4 mL/min/kg
- T1/2 ([4]; IV 2 mg/kg): 1.6 h
- AUC0-24 ([4]; PO 10 mg/kg): 5599 ng·h/mL
- Cmax ([4]; PO 10 mg/kg): 4645 ng/mL
- T1/2 ([4]; PO 10 mg/kg): 1.2 h
- Tmax ([4]; PO 10 mg/kg): 0.5 h
- F ([4]; PO 10 mg/kg vs IV 2 mg/kg): 79%
- TGI [5]: 105%
- Tumor volume (mm^3)-D 1 ([5]; day 1): 171 mm^3
- Tumor volume (mm^3)-D 21 ([5]; day 21): 28 mm^3
